ChEMBL document CHEMBL1201862, “PubChem BioAssay data set” (2004)
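Five concentrations, 48 hours, 96-well plates. Here, GI50 denotes the concentration required for 50% inhibition of growth.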 Activity calls are given as the source filed them. Cut-off read from the data, not from the text of the source: active = GI50 up to about 1.1 µM and inactive = higher.

Assays:
Test in all cases: inhibition of tumour cell growth, NCI panel, 48 h
[1] = system: HOP-62
[2] = system: MDA-MB-231
[3] = system: T47D
[4] = system: NCI-H23
[5] = system: Malme-3M
[6] = system: K562
[7] = system: HT-29
[8] = system: OVCAR-4
[9] = system: A549
[10] = system: HCT-15
[11] = system: 786-0
[12] = system: EKVX
[13] = system: UO-31
[14] = system: NCI-H460
[15] = system: SN12C
[16] = system: BT-549
[17] = system: SF-295
[18] = system: SK-MEL-5
[19] = system: SW-620
[20] = system: SK-OV-3

SMILES	GI50 [1]	GI50 [2]	GI50 [3]	GI50 [4]	GI50 [5]	GI50 [6]	GI50 [7]	GI50 [8]	GI50 [9]	GI50 [10] [µM]	GI50 [11]	GI50 [12]	GI50 [13]	GI50 [14]	GI50 [15]	GI50 [16]	GI50 [17]	GI50 [18]	GI50 [19]	GI50 [20]
CCOC(=O)NC	> 100 µM (inactive)	> 100 µM (inactive)	> 100 µM (inactive)	> 100 µM (inactive)	> 100 µM (inactive)	> 100 µM (inactive)	> 100 µM (inactive)	> 100 µM (inactive)	> 100 µM (inactive)	> 100	> 100 µM (inactive)	> 100 µM (inactive)	> 100 µM (inactive)	> 100 µM (inactive)	> 100 µM (inactive)	> 100 µM (inactive)	> 100 µM (inactive)	> 100 µM (inactive)	> 100 µM (inactive)	> 100 µM (inactive)
COc1ccc(-c2cc3c(nn2)-c2ccccc2C3=O)cc1	> 10 µM (inactive)	> 10 µM (inactive)	> 10 µM (inactive)	> 10 µM (inactive)	> 10 µM (inactive)	> 10 µM (inactive)	> 10 µM (inactive)	> 10 µM (inactive)	> 10 µM (inactive)	> 10	> 10 µM (inactive)	> 10 µM (inactive)	> 10 µM (inactive)	> 10 µM (inactive)	> 10 µM (inactive)	> 10 µM (inactive)	> 10 µM (inactive)	> 10 µM (inactive)	> 10 µM (inactive)	> 10 µM (inactive)
Cc1[nH]c2ccccc2c1-c1cc(-c2cc(-c3c(C)[nH]c4ccccc34)on2)no1	85.9 µM (inactive)	> 100 µM (inactive)	85.5 µM (inactive)	> 100 µM (inactive)	63.7 µM (inactive)	56.6 µM (inactive)	42.6 µM (inactive)	> 100 µM (inactive)	> 100 µM (inactive)	57.1	92 µM (inactive)	54.7 µM (inactive)	46.6 µM (inactive)	42 µM (inactive)	> 100 µM (inactive)	> 100 µM (inactive)	40.2 µM (inactive)	38.5 µM (inactive)	53.2 µM (inactive)	77.6 µM (inactive)
Nc1nc(Cl)cc(NCC2(O)CC(CO)C2)n1 (stereo not given)	> 100 µM (inactive)	> 100 µM (inactive)	> 100 µM (inactive)	> 100 µM (inactive)	> 100 µM (inactive)	> 100 µM (inactive)	> 100 µM (inactive)	> 100 µM (inactive)	> 100 µM (inactive)	> 100	> 100 µM (inactive)	> 100 µM (inactive)	> 100 µM (inactive)	> 100 µM (inactive)	> 100 µM (inactive)	> 100 µM (inactive)	> 100 µM (inactive)	> 100 µM (inactive)	> 100 µM (inactive)	> 100 µM (inactive)
CC1=C/C(=N\O)C(C(O)(C(F)(F)F)C(F)(F)F)C(C)(C)C1 (stereo not given)	> 10 µM (inactive)	> 10 µM (inactive)	> 10 µM (inactive)	> 10 µM (inactive)	> 10 µM (inactive)	> 10 µM (inactive)	> 10 µM (inactive)	> 10 µM (inactive)	> 10 µM (inactive)	> 10	> 10 µM (inactive)	> 10 µM (inactive)	> 10 µM (inactive)	> 10 µM (inactive)	> 10 µM (inactive)	> 10 µM (inactive)	> 10 µM (inactive)	> 10 µM (inactive)	> 10 µM (inactive)	> 10 µM (inactive)
COc1cc2c(cc1OCCCCN1C(=O)c3cccc4cccc(c34)C1=O)N=C[C@@H]1CCCN1C2=O	7.73 µM (inactive)	3.53 µM (inactive)	7.93 µM (inactive)	3.74 µM (inactive)	3.72 µM (inactive)	4.15 µM (inactive)	5.73 µM (inactive)	3.27 µM (inactive)	5.68 µM (inactive)	3.99	2.64 µM (inactive)	17.1 µM (inactive)	1.68 µM (inactive)	3.96 µM (inactive)	3.53 µM (inactive)	3.52 µM (inactive)	6.04 µM (inactive)	2.01 µM (inactive)	4.92 µM (inactive)	9.48 µM (inactive)
Cc1cc2c(cc1Cl)SC(NNC(=O)c1ccco1)=NS2(=O)=O	> 10 µM (inactive)	> 10 µM (inactive)	> 10 µM (inactive)	> 10 µM (inactive)	> 10 µM (inactive)	> 10 µM (inactive)	> 10 µM (inactive)	> 10 µM (inactive)	> 10 µM (inactive)	> 10	> 10 µM (inactive)	> 10 µM (inactive)	> 10 µM (inactive)	> 10 µM (inactive)	> 10 µM (inactive)	> 10 µM (inactive)	> 10 µM (inactive)	> 10 µM (inactive)	> 10 µM (inactive)	> 10 µM (inactive)
COc1cc2oc(=O)cc(C)c2cc1[N+](=O)[O-]	41.6 µM (inactive)	22.4 µM (inactive)	20.7 µM (inactive)	21.3 µM (inactive)	20.1 µM (inactive)	22.4 µM (inactive)	23.1 µM (inactive)	35.1 µM (inactive)	> 90.4 µM (inactive)	17.7	17.5 µM (inactive)	> 59.4 µM (inactive)	34.4 µM (inactive)	46.3 µM (inactive)	16.4 µM (inactive)	16.7 µM (inactive)	51.4 µM (inactive)	27.3 µM (inactive)	23 µM (inactive)	84.1 µM (inactive)
Cc1ccc(Nc2n[nH]c(=S)s2)cc1C	> 100 µM (inactive)	> 100 µM (inactive)	27.4 µM (inactive)	> 100 µM (inactive)	> 100 µM (inactive)	64.1 µM (inactive)	57.4 µM (inactive)	89.9 µM (inactive)	79.4 µM (inactive)	60.4	> 100 µM (inactive)	> 100 µM (inactive)	> 100 µM (inactive)	59 µM (inactive)	> 100 µM (inactive)	> 100 µM (inactive)	79.6 µM (inactive)	68.2 µM (inactive)	> 100 µM (inactive)	> 100 µM (inactive)
CCN(CC)CCC(=O)Nc1ccc2sc3ccccc3c(=O)c2n1	16 µM (inactive)	> 10 µM (inactive)	16.1 µM (inactive)	17.8 µM (inactive)	23.4 µM (inactive)	11 µM (inactive)	36.7 µM (inactive)	22.9 µM (inactive)	17.3 µM (inactive)	19.3	12.5 µM (inactive)	25.9 µM (inactive)	10.4 µM (inactive)	23.1 µM (inactive)	23 µM (inactive)	15.6 µM (inactive)	21.2 µM (inactive)	17.9 µM (inactive)	12 µM (inactive)	20.6 µM (inactive)
